How the values were obtained:
[1] = Inhibition of Plasmodium falciparum IspD
Plasmodium falciparum [2] = assay: Antimalarial activity against Plasmodium falciparum Dd2 incubated for 72 hrs by SYBR green dye based assay; format: functional, organism-based; settings: Dd2, 72 h
Plasmodium falciparum [3] = assay: Antimalarial activity against Plasmodium falciparum Dd2 at 10 uM incubated for 72 hrs by SYBR green dye based assay relative to control; format: functional

Structure (SMILES) | IC50 [1] [nM] | EC50 (Plasmodium falciparum [2]) [nM] | inhibition at 10 µM (Plasmodium falciparum [3]) [%]
Cc1ccc([C@H]2N[C@H](C(=O)O)Cc3c2[nH]c2ccccc32)c(Cl)c1 | 82 | 410 | 
Cc1cc(Cl)ccc1[C@H]1N[C@H](C(=O)O)Cc2c1[nH]c1ccccc21 | 260 |  | 
Cc1ccc([C@H]2N[C@H](C(=O)O)Cc3c2[nH]c2ccccc32)c(C)c1 | 1000 | 10000 | 
CN1[C@H](c2ccc(Cl)cc2Cl)c2[nH]c3ccccc3c2C[C@H]1C(=O)O |  |  | 65
O=C(O)[C@@H]1Cc2c([nH]c3ccccc23)CN1Cc1ccc(Cl)cc1Cl |  | > 10000 | 
Cn1c2c(c3ccccc31)C[C@@H](C(=O)O)N[C@@H]2c1ccc(Cl)cc1Cl |  | 8000 | 
O=C(O)[C@H](Cc1c[nH]c2ccccc12)NCc1ccc(Cl)cc1Cl |  | > 10000 | 
O=C(O)[C@@H]1Cc2c([nH]c3ccccc23)[C@@H](c2ccc(Br)cc2Cl)N1 | 34 | 320 | 
C[C@@]1(C(=O)O)Cc2c([nH]c3ccccc23)[C@@H](c2ccc(Cl)cc2Cl)N1 (racemic) |  | > 10000 | 

Second part, led by results:

IC50 [1] [nM] | EC50 (Plasmodium falciparum [2]) [nM] | Structure (SMILES) | inhibition at 10 µM (Plasmodium falciparum [3]) [%]
> 5000 |  | O=C(O)[C@@H]1Cc2c([nH]c3ccccc23)[C@@H](c2ccccc2)N1 | 
1000 |  | O=C(O)[C@@H]1Cc2c([nH]c3ccccc23)[C@@H](c2ccccc2Cl)N1 | 
510 |  | O=C(O)[C@@H]1Cc2c([nH]c3ccccc23)[C@@H](c2ccc(Cl)cc2)N1 | 
 | > 10000 | O=C(O)[C@@H]1Cc2c([nH]c3ccccc23)[C@]2(CCc3ccccc32)N1 | 
 | > 10000 | C[C@]1(c2ccc(Cl)cc2Cl)N[C@H](C(=O)O)Cc2c1[nH]c1ccccc21 | 
 | > 10000 | C[C@]1(c2ccccc2Cl)N[C@H](C(=O)O)Cc2c1[nH]c1ccccc21 | 
 | > 10000 | C[C@]1(c2ccccc2)N[C@H](C(=O)O)Cc2c1[nH]c1ccccc21 | 
 | > 10000 | C[C@]1(c2ccc(Cl)cc2)N[C@H](C(=O)O)Cc2c1[nH]c1ccccc21 | 
